# From patent US20180186742A1, “PICOLINAMIDES AS FUNGICIDES” (Dow AgroSciences LLC, priority 2017, published 2018)
# Read-outs that look alike come from different tables or passages of the source.
# Key:
# Format in all cases: in vivo
# [1] = system: Phakopsora pachyrhizi; assay: Asian soybean rust (PHAKPA), disease control on soybean seedlings; conditions: High volume application at 25 ppm
# Protocol: Technical grades of materials were dissolved in acetone, which were then mixed with nine volumes of water containing 0.011% Tween 20. The fungicide solutions were applied onto soybean seedlings using an automated booth sprayer to run-off. All sprayed plants were allowed to air dry prior to further handling.
# Soybean plants (variety Williams 82) were grown in soil-less Metro mix, with one plant per pot. Two week old seedlings were used for testing. Plants were inoculated either 3 days prior to or 1 day after fungicide treatments. Plants were incubated for 24 h in a dark dew room at 22° C. and 100% relative humidity then transferred to a growth room at 23° C. for disease to develop. Disease severity was assessed on the sprayed leaves.
# [2] = system: Zymoseptoria tritici; assay: Leaf blotch of wheat (SEPTTR), disease control on wheat seedlings; conditions: for pest or weed control at 121.5 g/ha: low volume application at 121.5 g/H; for pest or weed control at 100 ppm: high volume application at 100 ppm
# Outline: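 Z. tritici spores were inoculated onto wheat seedlings (Yuma, first leaf emerged) either before or after treatment. Treatment was an automated spray to run-off of acetone/Triton X-100 water solutions, or a track spray of EC formulations with 0.1% Trycol 5941. Plants were held in dew chambers at 20 °C and then a greenhouse at 20 °C. First-leaf severity (0–100%) was converted to percent control against untreated plants.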
# [3] = system: Puccinia triticina; assay: Wheat brown rust (PUCCRT), disease control on wheat seedlings; conditions: for pest or weed control at 121.5 g/ha: low volume application at 121.5 g/H; for pest or weed control at 100 ppm: high volume application at 100 ppm
# Outline: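 Compounds in acetone, diluted with nine volumes of water containing 110 ppm Triton X-100, sprayed to run-off on first-leaf Yuma wheat seedlings; track-spray tests used EC formulations with 0.1% Trycol 5941. Puccinia triticina spores applied before or after treatment. Overnight dark dew room at 22° C, 100% humidity, then greenhouse at 24° C.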
# [4] = 24 h, 1 Day Protectant, read-out: PHAKPA 1DP disease control rating
# [5] = 72 h, 3 Day Curative, read-out: PHAKPA 3DC disease control rating
# [6] = 24 h, 1 Day Protectant, read-out: SEPTTR disease control, 1DP, LV activity
# [7] = 72 h, 3 Day Curative, read-out: SEPTTR disease control, 3DC, LV activity
# [8] = 24 h, 1 Day Protectant, read-out: PUCCRT disease control, 1DP, LV activity
# [9] = 72 h, 3 Day Curative, read-out: PUCCRT disease control, 3DC, LV activity
# [10] = 24 h, 1 Day Protectant, read-out: SEPTTR disease control, 1DP, HV activity
# [11] = 72 h, 3 Day Curative, read-out: SEPTTR disease control, 3DC, HV activity
# [12] = 24 h, 1 Day Protectant, read-out: PUCCRT disease control, 1DP, HV activity
# [13] = 72 h, 3 Day Curative, read-out: PUCCRT disease control, 3DC, HV activity
# [14] = 24 h, 1 Day Protectant, wheat leaf blotch, read-out: SEPTTR 1DP disease control, LV activity
# [15] = 72 h, 3 Day Curative, wheat leaf blotch, read-out: SEPTTR 3DC disease control, LV activity
# [16] = 24 h, 1 Day Protectant, wheat brown rust, read-out: PUCCRT 1DP disease control, LV activity
# [17] = 72 h, 3 Day Curative, wheat brown rust, read-out: PUCCRT 3DC disease control, LV activity
SMILES,"pest or weed control at 100 ppm [2, 10]","pest or weed control at 100 ppm [2, 11]","pest or weed control at 100 ppm [3, 12]","pest or weed control at 100 ppm [3, 13]","pest or weed control at 121.5 g/ha [2, 14]","pest or weed control at 121.5 g/ha [2, 15]","pest or weed control at 121.5 g/ha [3, 16]","pest or weed control at 121.5 g/ha [3, 17]",further results
COc1ccnc(C(=O)N[C@@H](C)C(=O)O[C@@H](C)[C@@H](c2ccccc2)C(C)C)c1OCOC(C)=O [Compound 162],–,–,–,–,–,–,–,–,"pest or weed control at 25 ppm [1, 4]: > 80%; pest or weed control at 25 ppm [1, 5]: < 80%; pest or weed control at 121.5 g/ha [2, 6]: < 80%; pest or weed control at 121.5 g/ha [2, 7]: > 80%; pest or weed control at 121.5 g/ha [3, 8]: > 80%; pest or weed control at 121.5 g/ha [3, 9]: > 80%"
COc1ccnc(C(=O)N[C@@H](C)C(=O)O[C@@H](C)[C@H](c2ccccc2)C(C)C)c1OCOC(C)=O [Compound 164],–,–,–,–,–,–,–,–,"pest or weed control at 25 ppm [1, 4]: > 80%; pest or weed control at 25 ppm [1, 5]: < 80%; pest or weed control at 121.5 g/ha [2, 6]: > 80%; pest or weed control at 121.5 g/ha [2, 7]: > 80%; pest or weed control at 121.5 g/ha [3, 8]: > 80%; pest or weed control at 121.5 g/ha [3, 9]: > 80%"
COc1ccnc(C(=S)N[C@@H](C)C(=O)O[C@@H](C)[C@@H](c2ccccc2)C2CCCC2)c1OC(C)=O [Compound 177],–,–,–,–,–,–,–,–,"pest or weed control at 25 ppm [1, 4]: > 80%; pest or weed control at 25 ppm [1, 5]: < 0%; pest or weed control at 121.5 g/ha [2, 6]: < 80%; pest or weed control at 121.5 g/ha [2, 7]: < 0%; pest or weed control at 121.5 g/ha [3, 8]: < 80%; pest or weed control at 121.5 g/ha [3, 9]: < 0%"
COc1ccnc(C(=O)N[C@@H](C)C(=O)O[C@@H](C)[C@@H](c2ccc(F)cc2C)C(C)C)c1OC(C)=O [Compound 178],–,–,–,–,–,–,–,–,"pest or weed control at 25 ppm [1, 4]: < 0%; pest or weed control at 25 ppm [1, 5]: < 80%; pest or weed control at 121.5 g/ha [2, 6]: < 0%; pest or weed control at 121.5 g/ha [2, 7]: < 80%; pest or weed control at 121.5 g/ha [3, 8]: > 80%; pest or weed control at 121.5 g/ha [3, 9]: < 80%"
CCC(CC)[C@H](c1ccc(F)cc1C)[C@H](C)OC(=O)[C@H](C)NC(=O)c1nccc(OC)c1OC(C)=O [Compound 179],–,–,–,–,–,–,–,–,"pest or weed control at 25 ppm [1, 4]: < 80%; pest or weed control at 25 ppm [1, 5]: < 80%; pest or weed control at 121.5 g/ha [2, 6]: > 80%; pest or weed control at 121.5 g/ha [2, 7]: > 80%; pest or weed control at 121.5 g/ha [3, 8]: > 80%; pest or weed control at 121.5 g/ha [3, 9]: < 0%"
COc1ccnc(C(=O)N[C@@H](C)C(=O)O[C@@H](C)[C@@H](c2ccc(F)cc2C)C2CCCC2)c1OC(C)=O [Compound 180],–,–,–,–,–,–,–,–,"pest or weed control at 25 ppm [1, 4]: < 80%; pest or weed control at 25 ppm [1, 5]: < 80%; pest or weed control at 121.5 g/ha [2, 6]: < 80%; pest or weed control at 121.5 g/ha [2, 7]: < 80%; pest or weed control at 121.5 g/ha [3, 8]: > 80%; pest or weed control at 121.5 g/ha [3, 9]: < 80%"
COc1ccnc(C(=O)N[C@@H](C)C(=O)O[C@@H](C)[C@@H](c2ccc(F)cc2F)C(C)C)c1O [Compound 331],< 80%,< 80%,< 80%,< 80%,–,–,–,–,–
COc1ccnc(C(=O)N[C@@H](C)C(=O)O[C@@H](C)[C@@H](c2ccc(C)cc2F)C(C)C)c1O [Compound 332],< 80%,< 80%,< 80%,< 80%,–,–,–,–,–
COc1ccnc(C(=O)N[C@@H](C)C(=O)O[C@@H](C)[C@@H](c2ccc(Cl)cc2Cl)C(C)C)c1O [Compound 333],< 80%,< 80%,> 80%,< 80%,–,–,–,–,–
COc1ccnc(C(=O)N[C@@H](C)C(=O)O[C@@H](C)[C@H](c2ccc3c(c2)OCO3)C(C)C)c1O [Compound 334],< 80%,< 0%,> 80%,> 80%,–,–,–,–,–
COc1ccnc(C(=O)N[C@@H](C)C(=O)O[C@@H](C)[C@H](c2ccc(OC(F)(F)F)cc2)C(C)C)c1O [Compound 335],> 80%,< 80%,> 80%,> 80%,–,–,–,–,–
COc1ccnc(C(=O)N[C@@H](C)C(=O)O[C@@H](C)[C@H](c2ccc(OC(C)C)cc2)C(C)C)c1O [Compound 336],< 80%,< 80%,> 80%,< 80%,–,–,–,–,–
COc1ccnc(C(=O)N[C@@H](C)C(=O)O[C@@H](C)[C@H](c2ccccc2OC(C)C)C(C)C)c1O [Compound 337],< 80%,< 0%,> 80%,> 80%,–,–,–,–,–
COc1ccc([C@H](C(C)C)[C@H](C)OC(=O)[C@H](C)NC(=O)c2nccc(OC)c2O)cc1 [Compound 338],< 80%,< 80%,> 80%,> 80%,–,–,–,–,–
COc1ccnc(C(=O)N[C@@H](C)C(=O)O[C@@H](C)[C@H](c2c(F)cc(F)cc2F)C(C)C)c1O [Compound 341],> 80%,> 80%,> 80%,> 80%,–,–,–,–,–
COc1ccnc(C(=O)N[C@@H](C)C(=O)O[C@@H](C)[C@H](c2c(F)cccc2Cl)C(C)C)c1O [Compound 343],> 80%,> 80%,> 80%,> 80%,–,–,–,–,–
CCC(C)[C@@H](c1ccccc1C)[C@H](C)OC(=O)[C@H](C)NC(=O)c1nccc(OC)c1OC(C)=O (stereo partly shown) [Compound 384],–,–,–,–,> 80%,> 80%,> 80%,> 80%,–
CCC(CC)[C@@H](c1ccccc1C)[C@H](C)OC(=O)[C@H](C)NC(=O)c1nccc(OC)c1OC(C)=O [Compound 385],–,–,–,–,> 80%,> 80%,> 80%,> 80%,–
CCC(C)[C@@H](c1ccccc1C)[C@H](C)OC(=O)[C@H](C)NC(=O)c1nccc(OC)c1OC(=O)C(C)C (stereo partly shown) [Compound 386],–,–,–,–,< 80%,> 80%,> 80%,> 80%,–
CCC(CC)[C@@H](c1ccccc1C)[C@H](C)OC(=O)[C@H](C)NC(=O)c1nccc(OC)c1OC(=O)C(C)C [Compound 387],–,–,–,–,< 80%,> 80%,> 80%,< 80%,–
COc1ccnc(C(=O)N[C@@H](C)C(=O)O[C@@H](C)[C@H](c2c(F)cc(F)cc2F)C(C)C)c1OC(C)=O [Compound 388],–,–,–,–,> 80%,> 80%,> 80%,> 80%,–
COc1ccnc(C(=O)N[C@@H](C)C(=O)O[C@@H](C)[C@H](c2ccc(Cl)cc2F)C(C)C)c1OC(C)=O [Compound 389],–,–,–,–,> 80%,> 80%,> 80%,> 80%,–
COc1ccnc(C(=O)N[C@@H](C)C(=O)O[C@@H](C)[C@H](c2c(F)cccc2Cl)C(C)C)c1OC(C)=O [Compound 390],–,–,–,–,> 80%,> 80%,> 80%,> 80%,–
COc1ccnc(C(=O)N[C@@H](C)C(=O)O[C@@H](C)[C@H](c2cccc(C)c2)C(C)C)c1OC(C)=O [Compound 391],–,–,–,–,< 80%,< 80%,> 80%,< 80%,–
COc1ccnc(C(=O)N[C@@H](C)C(=O)O[C@@H](C)[C@H](c2cc(F)ccc2F)C(C)C)c1OC(C)=O [Compound 392],–,–,–,–,< 80%,> 80%,> 80%,> 80%,–
